From ChEMBL document CHEMBL5143685, “Valorisation of the diterpene podocarpic acid - Antibiotic and antibiotic enhancing activities of polyamine conjugates” (Bioorg Med Chem, 2022)
≈ marks a conversion by molar mass, not a printed value.

Key:
Klebsiella pneumoniae = assay: Antibacterial activity against Klebsiella pneumoniae ATCC 700603 assessed as inhibition of bacterial growth measured after 18 hrs by resazurin dye based analysis; assay type: functional
Escherichia coli = assay: Antibacterial activity against Escherichia coli ATCC 25922 assessed as inhibition of bacterial growth measured after 18 hrs by resazurin dye based analysis; assay type: functional
Pseudomonas aeruginosa = assay: Antibacterial activity against Pseudomonas aeruginosa ATCC 27853 assessed as inhibition of bacterial growth measured after 18 hrs by resazurin dye based analysis; assay type: functional
Staphylococcus aureus = assay: Antibacterial activity against methicillin-resistant Staphylococcus aureus ATCC 43300 assessed as inhibition of bacterial growth measured after 18 hrs by resazurin dye based analysis; assay type: functional
Acinetobacter baumannii = assay: Antibacterial activity against Acinetobacter baumannii ATCC 19606 assessed as inhibition of bacterial growth measured after 18 hrs by resazurin dye based analysis; assay type: functional
Candida albicans = assay: Antifungal activity against Candida albicans ATCC 90028 assessed as fungal growth inhibition incubated for 36 hrs by resazurin dye based analysis; assay type: functional
Cryptococcus neoformans = assay: Antifungal activity against Cryptococcus neoformans ATCC 208821 assessed as fungal growth inhibition incubated for 36 hrs by resazurin dye based analysis; assay type: functional
[1] = Cytotoxicity against HEK293 cells assessed as cell growth inhibition measured after 20 hrs by resazurin dye based assay; assay type: toxicity; conditions: human

Row | Compound | MIC (Klebsiella pneumoniae) [µM] | MIC (Escherichia coli) [µM] | MIC (Pseudomonas aeruginosa) [µM] | MIC (Staphylococcus aureus) [µM] | MIC (Acinetobacter baumannii) [µM] | MIC (Candida albicans) [µM] | MIC (Cryptococcus neoformans) [µM] | IC50 at 20 h [1] [µM]
1 | C[C@]1(C(=O)O)CCC[C@]2(C)c3cc(OC(=O)NCCCNCCCCCCCN)ccc3CC[C@@H]12.O=C(O)C(F)(F)F.O=C(O)C(F)(F)F | > 44.7 | > 44.7 | > 44.7 | > 44.7 | > 44.7 | > 44.7 | > 44.7 | > 44.7
2 | COC(=O)[C@@]1(C)CCC[C@]2(C)c3cc(OC(=O)CCCNCCCCCCNCCCNC(=O)Oc4ccc5c(c4)[C@@]4(C)CCC[C@](C)(C(=O)OC)[C@@H]4CC5)ccc3CC[C@@H]12.O=C(O)C(F)(F)F.O=C(O)C(F)(F)F | > 29.4 | 14.7 | > 29.4 | ≤ 0.23 | > 29.4 | ≤ 0.23 | 0.46 | 4.68
3 | CCCCCNC(=O)[C@@]1(C)CCC[C@]2(C)c3cc(OC(=O)CCCNCCCCCCCCCCCCNCCCNC(=O)Oc4ccc5c(c4)[C@@]4(C)CCC[C@](C)(C(=O)NCCCCC)[C@@H]4CC5)ccc3CC[C@@H]12.O=C(O)C(F)(F)F.O=C(O)C(F)(F)F | > 25 | > 25 | > 25 | 1.56 | > 25 | ≤ 0.19 | ≤ 0.19 | > 25
4 | C[C@]1(C(=O)NCCCNCCCCCCCCN)CCC[C@]2(C)c3cc(OC(=O)NCCCNCCCCCCCCN)ccc3CC[C@@H]12.O=C(O)C(F)(F)F.O=C(O)C(F)(F)F.O=C(O)C(F)(F)F.O=C(O)C(F)(F)F | > 28 | > 28 | > 28 | > 28 | > 28 | > 28 | > 28 | > 28
5 | COC(=O)[C@@]1(C)CCC[C@]2(C)c3cc(OC(=O)CCCNCCCCNCCCNC(=O)Oc4ccc5c(c4)[C@@]4(C)CCC[C@](C)(C(=O)OC)[C@@H]4CC5)ccc3CC[C@@H]12.O=C(O)C(F)(F)F.O=C(O)C(F)(F)F | > 30.2 | 30.2 | > 30.2 | 1.89 | 30.2 | 15.1 | 1.89 | 16.4
6 | C[C@]1(C(=O)O)CCC[C@]2(C)c3cc(OC(=O)CCCNCCCCCCCCCCCCNCCCNC(=O)Oc4ccc5c(c4)[C@@]4(C)CCC[C@](C)(C(=O)O)[C@@H]4CC5)ccc3CC[C@@H]12.O=C(O)C(F)(F)F.O=C(O)C(F)(F)F | > 28 | > 28 | > 28 | 14 | > 28 | > 28 | 3.5 | > 28
7 | COC(=O)[C@@]1(C)CCC[C@]2(C)c3cc(OC(=O)CCCNCCCCCCCCCCCCNCCCNC(=O)Oc4ccc5c(c4)[C@@]4(C)CCC[C@](C)(C(=O)OC)[C@@H]4CC5)ccc3CC[C@@H]12.O=C(O)C(F)(F)F.O=C(O)C(F)(F)F | > 27.3 | > 27.3 | > 27.3 | ≤ 0.21 | > 27.3 | ≤ 0.21 | 0.43 | > 27.3
8 | OC(Cn1cncn1)(Cn1cncn1)c1ccc(F)cc1F [FLUCONAZOLE] |  |  |  |  |  | 0.4 (≈ 0.123 µg/mL) | 26 (≈ 7.96 µg/mL) | 
9 | C[C@]1(C(=O)O)CCC[C@]2(C)c3cc(OC(=O)NCCCNCCCCCCCCCCCCN)ccc3CC[C@@H]12.O=C(O)C(F)(F)F.O=C(O)C(F)(F)F | > 32.8 | > 32.8 | > 32.8 | > 32.8 | > 32.8 | 32.8 | > 32.8 | > 32.8
10 | C[C@H]1c2cccc(O)c2C(=O)C2=C(O)[C@]3(O)C(=O)C(C(N)=O)=C(O)[C@@H](N(C)C)[C@@H]3[C@@H](O)[C@@H]21 [DOXYCYCLINE] |  |  | 90 (≈ 40 µg/mL) |  |  |  |  | 
11 | C[C@]1(C(=O)NCCCNCCCCN)CCC[C@]2(C)c3cc(O)ccc3CC[C@@H]12 | > 50.8 | > 50.8 | > 50.8 | > 50.8 | > 50.8 | > 50.8 | > 50.8 | 
12 | CCCCCNC(=O)[C@@]1(C)CCC[C@]2(C)c3cc(OC(=O)CCCNCCCCNCCCNC(=O)Oc4ccc5c(c4)[C@@]4(C)CCC[C@](C)(C(=O)NCCCCC)[C@@H]4CC5)ccc3CC[C@@H]12.O=C(O)C(F)(F)F.O=C(O)C(F)(F)F | > 27.4 | > 27.4 | > 27.4 | ≤ 0.21 | > 27.4 | 13.7 | > 27.4 | > 27.4
13 | COC(=O)[C@@]1(C)CCC[C@]2(C)c3cc(OC(=O)CCCNCCCCCCCCNCCCNC(=O)Oc4ccc5c(c4)[C@@]4(C)CCC[C@](C)(C(=O)OC)[C@@H]4CC5)ccc3CC[C@@H]12.O=C(O)C(F)(F)F.O=C(O)C(F)(F)F | > 28.7 | > 28.7 | > 28.7 | ≤ 0.22 | > 28.7 | ≤ 0.22 | 0.45 | > 28.7
14 | C[C@]1(C(=O)NCCCNCCCCCCCCN)CCC[C@]2(C)c3cc(O)ccc3CC[C@@H]12.O=C(O)C(F)(F)F.O=C(O)C(F)(F)F | > 46.7 | > 46.7 | > 46.7 | 46.7 | > 46.7 | > 46.7 | > 46.7 | > 46.7
15 | C[C@]1(C(=O)O)CCC[C@]2(C)c3cc(OC(=O)CCCNCCCCCCCCNCCCNC(=O)Oc4ccc5c(c4)[C@@]4(C)CCC[C@](C)(C(=O)O)[C@@H]4CC5)ccc3CC[C@@H]12.O=C(O)C(F)(F)F.O=C(O)C(F)(F)F | > 29.4 | > 29.4 | > 29.4 | > 29.4 | > 29.4 | 14.7 | ≤ 0.23 | > 29.4
16 | C[C@]1(C(=O)NCCCNCCCCCCCNCCCNC(=O)[C@@]2(C)CCC[C@]3(C)c4cc(O)ccc4CC[C@@H]23)CCC[C@]2(C)c3cc(O)ccc3CC[C@@H]12.O=C(O)C(F)(F)F.O=C(O)C(F)(F)F | > 32.5 | 32.5 | > 32.5 | 32.5 | > 32.5 | 32.5 | 32.5 | 19.1
17 | CCCCCNC(=O)[C@@]1(C)CCC[C@]2(C)c3cc(OC(=O)CCCNCCCCCCNCCCNC(=O)Oc4ccc5c(c4)[C@@]4(C)CCC[C@](C)(C(=O)NCCCCC)[C@@H]4CC5)ccc3CC[C@@H]12.O=C(O)C(F)(F)F.O=C(O)C(F)(F)F | > 26.7 | > 26.7 | > 26.7 | ≤ 0.21 | > 26.7 | 1.67 | 6.68 | > 26.7
18 | C[C@]1(C(=O)NCCCNCCCCCCCN)CCC[C@]2(C)c3cc(O)ccc3CC[C@@H]12.O=C(O)C(F)(F)F.O=C(O)C(F)(F)F | > 47.6 | > 47.6 | > 47.6 | > 47.6 | > 47.6 | > 47.6 | > 47.6 | > 47.6
19 | C[C@@]12CCC[C@](C)(C(=O)O)[C@H]1CCc1ccc(OC(=O)CCCNCCCCNCCCNC(=O)Oc3ccc4c(c3)[C@@]3(C)CCC[C@](C)(C(=O)O)[C@@H]3CC4)cc12.O=C(O)C(F)(F)F.O=C(O)C(F)(F)F | > 31 | > 31 | > 31 | > 31 | > 31 | 7.76 | 7.76 | > 31
20 | COLISTIN | 0.2 | 0.1 | 0.2 |  | 0.2 |  |  | 
21 | C[C@]1(C(=O)O)CCC[C@]2(C)c3cc(OC(=O)CCCNCCCCCCCNCCCNC(=O)Oc4ccc5c(c4)[C@@]4(C)CCC[C@](C)(C(=O)O)[C@@H]4CC5)ccc3CC[C@@H]12.O=C(O)C(F)(F)F.O=C(O)C(F)(F)F | > 29.8 | > 29.8 | > 29.8 | > 29.8 | > 29.8 | 29.8 | 7.45 | > 29.8
22 | CN[C@H](CC(C)C)C(=O)N[C@H]1C(=O)N[C@@H](CC(N)=O)C(=O)N[C@H]2C(=O)N[C@H]3C(=O)N[C@H](C(=O)N[C@H](C(=O)O)c4cc(O)cc(O)c4-c4cc3ccc4O)[C@H](O)c3ccc(c(Cl)c3)Oc3cc2cc(c3O[C@@H]2O[C@H](CO)[C@@H](O)[C@H](O)[C@H]2O[C@H]2C[C@](C)(N)[C@H](O)[C@H](C)O2)Oc2ccc(cc2Cl)[C@H]1O [VANCOMYCIN] |  |  |  | 0.7 (≈ 1.01 µg/mL) |  |  |  | 
23 | C[C@]1(C(=O)O)CCC[C@]2(C)c3cc(O)ccc3CC[C@@H]12 [PODOCARIC ACID] | > 117 | > 117 | > 117 | > 117 | > 117 | > 117 | > 117 | 
24 | CC[C@H]1OC(=O)[C@H](C)[C@@H](O[C@H]2C[C@@](C)(OC)[C@@H](O)[C@H](C)O2)[C@H](C)[C@@H](O[C@@H]2O[C@H](C)C[C@H](N(C)C)[C@H]2O)[C@](C)(O)C[C@@H](C)C(=O)[C@H](C)[C@@H](O)[C@]1(C)O [ERYTHROMYCIN] |  | 174 (≈ 128 µg/mL) |  |  |  |  |  | 
25 | C[C@]1(C(=O)O)CCC[C@]2(C)c3cc(OC(=O)NCCCNCCCCCCCCCCN)ccc3CC[C@@H]12 | > 42.2 | > 42.2 | > 42.2 | > 42.2 | > 42.2 | > 42.2 | > 42.2 | 
26 | C[C@]1(C(=O)O)CCC[C@]2(C)c3cc(OC(=O)NCCCNCCCCN)ccc3CC[C@@H]12 | > 47.5 | > 47.5 | > 47.5 | > 47.5 | > 47.5 | > 47.5 | > 47.5 | 
